Laboratory results published in EP4763838A1, “COMPOUND AND USE THEREOF” (Ocean University of China, priority 2023, dated 2025).
Where “and” joins values, the source holds several entries; their conditions need not be identical. Identical values can stand only once. Counter-ions that a name gives are not always drawn. Like-named read-outs stand apart in the source and are kept apart here.

Molecular target: T1, E3 ubiquitin ligase CRBN (Homo sapiens, UniProt Q96SW2)
T1 construct: purchased PE (PerkinElmer) 64BDCRBNPEG
Test: Binding activity to E3 ubiquitin ligase CRBN (HTRF competitive binding with XL665-labeled thalidomide, Cereblon binding kit)
Settings: competition with XL665-labeled thalidomide for GST-labelled CRBN protein, 3 h at room temperature
Procedure: The binding activity of the compound disclosed in the present patent to the E3 ubiquitin ligase CRBN was determined by competitive binding of the disclosed compound with XL665-labeled thalidomide to the CRBN protein, thereby preventing the occurrence of fluorescence resonance energy transfer (FRET). Accordingly, the binding affinity of the compound to the CRBN protein was determined.
CRBN binding activity test kit (CEREBLON BINDING KITS (PE, 64BDCRBNPEG)).
The assay was based on a homogeneous time-resolved fluorescence (HTRF) technology. When a donor and an acceptor were in close proximity, the donor transferred energy to the acceptor so that the acceptor was excited to emit an emission light 665 nm.
The donor used in the kit of the present disclosure was a europium-labeled GST antibody (GST Eu Cryptate Antibody), and the acceptor was thalidomide labeled with XL665 (Thalidomide-Red reagent). The donor bound to the CRBN protein comprising a GST label. The compound disclosed in the present patent competitively bound to the CRBN protein with thalidomide. The binding activity of the compound was determined according to the fluorescence value emitted by the acceptor at 665 nm. The stronger binding force of the compound indicated the weaker signal.
The donor and the acceptor were diluted 50-fold respectively by using a kit buffer (PROTAC binding buffer 1). The CRBN protein was diluted 45-fold. The 8 mM solution of the compound disclosed in the present patent was diluted 10-fold with 1X diluent from the kit, followed by 5-fold serial dilutions for a total of 7 consecutive dilutions.
5 µl of compound, 5 µl of diluted CRBN protein and 10 µl of donor-acceptor isovolumetric mixture were sequentially added to each well of a white 384-well plate (PE, Part number:6008280). The above system was incubated for 3 h at room temperature.
A ratio of acceptor to donor emission signals for each individual well was calculated. Ratio = signal value at 665 nm/signal value at 620 nm * 10^4 Coefficient of variation (CV) = standard deviation (SD)/average Ratio × 100 [formula]
The IC50 value was calculated based on the compound concentration, Ratio and the coefficient of variation by using GraphPad Prism. Table 10 Binding activity of compounds 1-18 to E3 ubiquitin ligase CRBN

IC50 (read-out: IC50) | SMILES | IC50
– | Nc1cc(N2CCNCC2)nnc1C1CCC(=O)NC1=O (stereo not drawn) [Compound 17, 3-(4-amino-6-(piperazin-1-yl)pyridazin-3-yl)piperidine-2,6-dione hydrochloride salt] | 50 µM
– | COc1ccc(C2CCC(=O)NC2=O)nn1 (stereo not drawn) [Compound 8, 3-(6-methoxypyridazin-3-yl) piperidine-2,6-dione] | 50 µM
– | O=C1CCC(c2nnc(N3CCNCC3)cc2-c2ccccc2)C(=O)N1 (stereo not drawn) [Compound 19, 3-(4-phenyl-6-(piperazin-1-yl)pyridazin-3-yl)piperidine-2,6-dione hydrochloride salt] | > 100 µM
> 50 µM and 100 µM | CN(C)Cc1cc(C2CCC(=O)NC2=O)nnc1N1CCNCC1 (stereo not drawn) [Compound 30, 3-(5-((dimethylamino)methyl)-6-(piperazin-1-yl)pyridazin-3-yl)piperidine-2,6-dione bis-hydrochloride salt] | –
– | O=C1CCC(c2ccc(N3CCNCC3)nn2)C(=O)N1 (stereo not drawn) [Compound 7, 3-(6-(piperazin-1-yl)pyridazin-3-yl)piperidine-2,6-dione hydrochloride salt] | 50 µM
– | O=C1CCC(c2nnc(N3CCNCC3)cc2C(F)(F)F)C(=O)N1 (stereo not drawn) [Compound 15, 3-(6-(piperazin-1-yl)-4-(trifluoromethyl)pyridazin-3-yl)piperidine-2,6-dione hydrochloride salt] | 50 µM
– | Nc1cc(C2CCC(=O)NC2=O)nnc1N1CCNCC1 (stereo not drawn) [Compound 29, 3-(5-amino-6-(piperazin-1-yl)pyridazin-3-yl)piperidine-2,6-dione hydrochloride salt] | 50 µM
– | CN(C)c1nnc(C2CCC(=O)NC2=O)cc1N1CCNCC1 (stereo not drawn) [Compound 42, 3-(6-(dimethylamino)-5-(piperazin-1-yl)pyridazin-3-yl)piperidine-2,6-dione hydrochloride salt] | 50 µM
– | COc1cc(N2CCNCC2)nnc1C1CCC(=O)NC1=O (stereo not drawn) [Compound 16, 3-(4-methoxy-6-(piperazin-1-yl)pyridazin-3-yl)piper idine-2,6-dione hydrochloride salt] | 50 µM
– | O=C1CCC(c2ccc(N3CCC[C@@H]3CO)nn2)C(=O)N1 (stereo partly drawn) [Compound 5, 3-(6-((R)-2-(hydroxymethyl)pyrrolidin-1-yl)pyridazin-3-yl)piperidine-2,6-dione] | 50 µM
– | O=C1CCC(c2nnc(N3CCNCC3)cc2F)C(=O)N1 (stereo not drawn) [Compound 13, 3-(4-fluoro-6-(piperazin-1-yl)pyridazin-3-yl)piperidine-2,6-dione hydrochloride salt] | 50 µM
– | O=C1CCN(c2ccc(N3CCNCC3)nn2)C(=O)N1 [Compound 40, 1-(6-(piperazin-1-yl)pyridazin-3-yl)dihydropyrimidine-2,4(1H,3H)-dione hydrochloride salt] | 50 µM
– | O=C1CCC(c2cc(C3CC3)c(N3CCNCC3)nn2)C(=O)N1 (stereo not drawn) [Compound 24, 3-(5-cyclopropyl-6-(piperazin-1-yl)pyridazin-3-yl)pip eridine-2,6-dione hydrochloride salt] | > 50 µM
– | N#Cc1cc(C2CCC(=O)NC2=O)nnc1N1CCNCC1 (stereo not drawn) [Compound 26, 6-(2,6-dioxopiperidin-3-yl) -3-(piperazin-1-yl)pyridazine-4-carbonitrile hydrochloride salt] | 50 µM
– | CN1C(=O)CCC(c2ccc(N3CCNCC3)nn2)C1=O (stereo not drawn) [Compound 43, 1-methyl-3-(6-(piperazin-1-yl)pyridazin-3-yl)piperidine-2,6-dione hydrochloride salt] | > 100 µM
– | O=C1CCC(c2cc(F)c(N3CCNCC3)nn2)C(=O)N1 (stereo not drawn) [Compound 25, 3-(5-fluoro-6-(piperazin-1-yl)pyridazin-3-yl)piperidine-2,6-dione hydrochloride salt] | 50 µM
– | O=C1CCC(c2nnc(N3CCNCC3)cc2-c2ccncc2)C(=O)N1 (stereo not drawn) [Compound 20, 3-(6-(piperazin-1-yl)-4-(pyridin-4-yl)pyridazin-3-yl)pi peridine-2,6-dione hydrochloride salt] | > 100 µM
– | [2H]C1(c2ccc(N3CCNCC3)nn2)CCC(=O)NC1=O (stereo not drawn) [Compound 39, 3-(6-(piperazin-1-yl)pyridazin-3-yl)piperidine-2,6-dione-3-dhydrochloride salt] | 50 µM
– | COc1nnc(C2CCC(=O)NC2=O)cc1N1CCNCC1 (stereo not drawn) [Compound 41, 3-(6-methoxy-5-(piperazin-1-yl)pyridazin-3-yl)piper idine-2,6-dione hydrochloride salt] | 50 µM
– | COc1cc(C2CCC(=O)NC2=O)nnc1N1CCNCC1 (stereo not drawn) [Compound 28, 3-(5-methoxy-6-(piperazin-1-yl)pyridazin-3-yl)piper idine-2,6-dione hydrochloride salt] | 50 µM
> 50 µM and 100 µM | CN(C)Cc1cc(N2CCNCC2)nnc1C1CCC(=O)NC1=O (stereo not drawn) [Compound 18, 3-(4-((dimethylamino)methyl)-6-(piperazin-1-yl)pyridazin-3-yl)piperidine-2,6-dionebis hydrochloride salt] | –
– | O=C1CCC(c2ccc(N3CCC[C@H]3CO)nn2)C(=O)N1 (stereo partly drawn) [Compound 6, 3-(6-((S)-2-(hydroxymethyl)pyrrolidin-1-yl)pyridazin-3-yl)piperidine-2,6-dione] | 50 µM
– | CCc1cc(C2CCC(=O)NC2=O)nnc1N1CCNCC1 (stereo not drawn) [Compound 22, 3-(5-ethyl-6-(piperazin-1-yl)pyridazin-3-yl)piperidine-2,6-dione hydrochloride salt] | > 50 µM
– | Cc1c(C2CCC(=O)NC2=O)nnc(N2CCNCC2)c1C (stereo not drawn) [Compound 33, 3-(4,5-dimethyl-6-(piperazin-1-yl)pyridazin-3-yl)pip eridine-2,6-dione hydrochloride salt] | 50 µM
– | Cc1cc(N2CCNCC2)nnc1C1CCC(=O)NC1=O (stereo not drawn) [Compound 9, 3-(4-methyl-6-(piperazin-1-yl)pyridazin-3-yl)piperidine-2,6-dione hydrochloride salt] | 50 µM
– | N#Cc1cc(N2CCNCC2)nnc1C1CCC(=O)NC1=O (stereo not drawn) [Compound 14, 3-(2,6-dioxopiperidin-3-yl) -6-(piperazin-1-yl)pyridazine-4-carbonitrile hydrochloride salt] | 50 µM
– | O=C1CCC(F)(c2ccc(N3CCNCC3)nn2)C(=O)N1 (stereo not drawn) [Compound 38, 3-fluoro-3-(6-(piperazin-1-yl)pyridazin-3-yl)piperidine-2,6-dione hydrochloride salt] | 50 µM
– | O=C1CCC(c2cc(C(F)(F)F)c(N3CCNCC3)nn2)C(=O)N1 (stereo not drawn) [Compound 27, 3-(6-(piperazin-1-yl)-5-(trifluoromethyl)pyridazin-3-yl)piperidine-2,6-dione hydrochloride salt] | 50 µM
– | CC(C)c1cc(C2CCC(=O)NC2=O)nnc1N1CCNCC1 (stereo not drawn) [Compound 23, 3-(5-isopropyl-6-(piperazin-1-yl)pyridazin-3-yl)piper idine-2,6-dione hydrochloride salt] | 100 µM
– | Cc1cc(C2CCC(=O)NC2=O)nnc1N1CCNCC1 (stereo not drawn) [Compound 21, 3-(5-methyl-6-(piperazin-1-yl)pyridazin-3-yl)piperidine-2,6-dione hydrochloride salt] | 50 µM
